From patent US5371077A, “Side chain derivatized 15-oxygenated sterols, methods of using them and a process for preparing them” (William Marsh Rice University, priority 1992, dated 1994) come the findings set out here.

One experiment concerns HMG-CoA reductase. As to the kind of experiment: Effects of sterols on HMG-CoA reductase activity in CHO-K1 cells. The experiment is classed as cell-based. The settings on record: 4 hours. On the procedure: Effects of side chain derivatized 15-oxygenated sterols on HMG-CoA reductase activity in CHO-K1 cells
The effects of the sterols on HMG-CoA reductase activity were determined on CHO-K1 cells. The cells were obtained from the American Type Culture Collection (Rockville, Md.). (3RS)-[3-^14 C]HMG-CoA (56 mCi per mmol) and (3RS)-[2-^3 H]mevalonolactone (176 mCi per mmol) were purchased from Amersham Corporation (Arlington Heights, Ill.). Lux tissue culture plasticware was from Miles Scientific (Elkhart, Ind.). Trypsin was obtained from Gibco Laboratories (Grand Island, N.Y.) and Ham's F12 medium, Proc. Natl. Acad. Sci. U.S.A., 53, 288-293 (1965), and phosphate buffered saline (PBS; KCl, 2.7 mM; KH2 PO4, 1.2 mM; NaCl, 137 mM; and Na2 HPO4, 8.1 mM) were obtained from Irvine Scientific (Irvine, Calif.). Fetal calf serum was purchased from Whittaker M.A. Bioproducts (Elkhart, Ind.).
For cell culture experiments, the sterols and C24 acid were added as ethanolic solutions to Ham's F12 medium supplemented with 5% delipidated fetal calf serum (lipid-deficient medium) and allowed to equilibrate for at least 6 hours at room temperature prior to storage at 4° C. Protein in detergent-solubilized extracts of cultured cells was assayed by the Peterson modification, Anal. Biochem., 83, 346-356, of the method of Lowry et al., J. Biol. Chem, 193, 265-275.
The CHO-K1 cells were maintained in Ham's F12 medium supplemented with 5% fetal calf serum (lipid-rich medium) in a humidified atmosphere of 5% CO2 -95% air at 37° C. Each experiment was initiated by inoculating […] cells into 100-mm dishes containing the lipid-rich medium (10 ml), followed by incubating for 48 hours. The medium was aspirated and, after rinsing the plates with PBS (10 ml), the cells were incubated for 18 hours in lipid-deficient media (10 ml). The cells were then incubated with fresh lipid-deficient media (10 ml) containing various concentrations of the 15-oxygenated sterols (from 0.0 μM to 2.5 μM) for 4 hours. Cells were harvested by scraping, and detergent-solubilized cell preparations were obtained for assay of HMG-CoA reductase activity using the method of Brown, Dana and Goldstein, J. Biol. Chem, 249, 789-796. Replicate assays (n=3) were carried out as described by Pinkerton et al., J. Biol. Chem, 257, 1929-1936, except that the specific activity of (3RS)-[3-^14 C]HMG-CoA was 20,000 dpm per nmol.

Experiment [1] is described as follows: Effects of dietary administration of F7-15-ketosterol to rats: serum sterols. The experiment is classed as in vivo, rats (Sprague-Dawley, male). The conditions noted are these: rat. An excerpt:
Effects of dietary administration of side chain derivatized 15-oxygenated sterols to rats
Male rats (100-140 g) of the Sprague-Dawley strain were obtained from Harlan Sprague-Dawley (Houston, Tex.) and housed in pairs for 6 days on a light (6:00 AM-6:00 PM)--dark cycle and fed a ground basal diet (Purina Formulab 5008) and water ad libitum. The animals were then divided into groups of 8 animals each, such that the mean values of serum cholesterol and body weight were approximately the same. The animals were then housed individually and were provided diet and water ad libitum. Blood for serum sterol concentrations was obtained at ^~ 8:00 AM from tail vein on days 5 and 9.
The experiment involved administration of 3β-hydroxy-25,26,26,26,27,27,27-heptafluoro-5α-cholest-8(14)-en-15-one (F7 -15-ketosterol) in basal diet as utilized previously in Schroepfer et al., Blochem. Biophys. Res. Commun., 78, 1227-233 (1977). 3β-Hydroxy-25,26,26,26,27,27,27-heptafluoro-5α-cholest-8(14)-en-15-one was administered at levels of 0.025%, 0.05%, 0.075, and 0.10% (by weight) in basal diet. Control rats received basal diet containing no added sterol.
Serum cholesterol was measured by two methods. Day 0 levels were determined using a commercial assay kit ("Single Vial"; Boehringer Mannheim Diagnostics, catalog no. 236691). This methodology could not be applied to the determination of serum cholesterol in serum samples of rats treated with 3β-hydroxy-25,26,26,26,27,27,27-heptafluoro-5α-cholest-8(14)-en-15-one due to the presence of another sterol which also acted as a substrate for cholesterol oxidase. Accordingly, cholesterol levels in serum were determined by gas chromatography (GC). Routine capillary GC analyses of sterols in serum were made on a 0.1 μm Rtx 1701 column (15 m×0.25 mm ID; 14% cyanopropylphenyl, 86% methyl polysiloxane; Restek Corp., Bellefonte, Pa.). Stigmasterol was used as an internal standard. In addition, recovery of sterol after saponification and extraction was monitored through the use of an internal standard of [7(n)-^3 H]cholesteryl oleate. Routine saponification of sample (100 μl) involved treatment with 10% KOH in ethanol (500 μl) followed by extraction with hexane (3×1.5 ml). After evaporation to dryness under nitrogen, the samples were treated with BSTFA-pyridine (1:1, 200 μl) for 1 hour at room temperature under nitrogen. After evaporation to dryness under nitrogen, the silylated material was dissolved in hexane (500 μl) and aliquots (1 μl) were subjected to GC analysis.

Take `C[C@H](CCC(=O)O)[C@H]1CC(=O)C2=C3CC[C@H]4C[C@@H](O)CC[C@]4(C)[C@H]3CC[C@@]21C` [I, 3β-hydroxy-15-keto-5α-chol-8(14)-en-24-oic acid]: the “HMG-CoA reductase activity (% of control activity)” value in the experiment on HMG-CoA reductase (sterol concentration 0.1 μM) is on record as 88.5 % of control activity; in the experiment on HMG-CoA reductase (sterol concentration 0.25 μM), 77.3 % of control activity; with HMG-CoA reductase (sterol concentration 0.5 μM), 69.9 % of control activity; with HMG-CoA reductase (sterol concentration 1.0 μM) it was 65.0 % of control activity; in the experiment with HMG-CoA reductase (sterol concentration 2.5 μM), 45.6 % of control activity.
For `CC(C)=CCC[C@@H](C)[C@H]1CC(=O)C2=C3CC[C@H]4C[C@@H](O)CC[C@]4(C)[C@H]3CC[C@@]21C` [II, 3β-hydroxy-5α-cholesta-8(14),24-dien-15-one], the “HMG-CoA reductase activity (% of control activity)” value in the experiment on HMG-CoA reductase (sterol concentration 0.1 μM) is reported as 60.5 % of control activity; with HMG-CoA reductase (sterol concentration 0.25 μM) it was 67.0 % of control activity; in the experiment on HMG-CoA reductase (sterol concentration 0.5 μM), 51.1 % of control activity; with HMG-CoA reductase (sterol concentration 1.0 μM) it was 40.0 % of control activity; in the experiment on HMG-CoA reductase (sterol concentration 2.5 μM), 35.2 % of control activity.
Taken in the same sequence, the figures for `C[C@H](CCCC(C)(C)O)[C@H]1CC(=O)C2=C3CC[C@H]4C[C@@H](O)CC[C@]4(C)[C@H]3CC[C@@]21C` [III, 3β,25-dihydroxy-5α-cholest-8(14)-en-15-one] were 66.4 % of control activity, 56.2 % of control activity, 50.2 % of control activity, 34.8 % of control activity and 23.7 % of control activity.
In the case of `CC(C)C(O)CC[C@@H](C)[C@H]1CC(=O)C2=C3CC[C@H]4C[C@@H](O)CC[C@]4(C)[C@H]3CC[C@@]21C` (stereo partly drawn) [IV, 3β,24-dihydroxy-5α-cholest-8(14)-en-15-one], the “HMG-CoA reductase activity (% of control activity)” value in the experiment on HMG-CoA reductase (sterol concentration 0.1 μM) is listed as 63.4 % of control activity; with HMG-CoA reductase (sterol concentration 0.25 μM), 33.5 % of control activity; with HMG-CoA reductase (sterol concentration 0.5 μM) it was 32.2 % of control activity; with HMG-CoA reductase (sterol concentration 1.0 μM), 34.2 % of control activity; in the experiment on HMG-CoA reductase (sterol concentration 2.5 μM), 21.5 % of control activity.
On to `C[C@H](CCCN(C)C)[C@H]1CC(=O)C2=C3CC[C@H]4C[C@@H](O)CC[C@]4(C)[C@H]3CC[C@@]21C` [V, 3β-hydroxy-24-dimethylamino-5α-chol-8(14)-en-15-one], for which the “HMG-CoA reductase activity (% of control activity)” value in the experiment on HMG-CoA reductase (sterol concentration 0.1 μM) is listed as 87.1 % of control activity; with HMG-CoA reductase (sterol concentration 0.25 μM), 85.4 % of control activity; in the experiment on HMG-CoA reductase (sterol concentration 0.5 μM), 73.3 % of control activity; in the experiment on HMG-CoA reductase (sterol concentration 1.0 μM), 53.5 % of control activity; with HMG-CoA reductase (sterol concentration 2.5 μM) it was 35.0 % of control activity.
Regarding `C[C@H](CCCC(F)(C(F)(F)F)C(F)(F)F)[C@H]1CC(=O)C2=C3CC[C@H]4C[C@@H](O)CC[C@]4(C)[C@H]3CC[C@@]21C` [VI, 3β-hydroxy-25,26,26,26,27,27,27-heptafluoro-5α-cholest-8(14)-en-15-one], the “HMG-CoA reductase activity (% of control activity)” value in the experiment with HMG-CoA reductase (sterol concentration 0.1 μM) is 68.3 % of control activity; in the experiment with HMG-CoA reductase (sterol concentration 0.25 μM), 49.1 % of control activity; in the experiment with HMG-CoA reductase (sterol concentration 0.5 μM), 35.6 % of control activity; in the experiment on HMG-CoA reductase (sterol concentration 1.0 μM) it was 29.0 % of control activity; in the experiment with HMG-CoA reductase (sterol concentration 2.5 μM), 22.2 % of control activity. In addition, the “Serum Sterols: Cholesterol” value in experiment [1] (0.025% in diet, day 5, control 2.60 ± 0.12) is recorded as 2.02 ± 0.12 mM; in experiment [1] (0.025% in diet, day 9, control 2.62 ± 0.06), 2.10 ± 0.10 mM; in experiment [1] (0.050% in diet, day 5, control 2.60 ± 0.12) it was 2.06 ± 0.07 mM; in experiment [1] (0.050% in diet, day 9, control 2.62 ± 0.06) it was 1.83 ± 0.07 mM; in experiment [1] (0.075% in diet, day 5, control 2.60 ± 0.12) it was 1.76 ± 0.05 mM; in experiment [1] (0.075% in diet, day 9, control 2.62 ± 0.06), 1.76 ± 0.12 mM. Moreover, the “Serum Sterols: Cholesterol” value was determined as 1.97 ± 0.09 mM in experiment [1] (0.100% in diet, day 5, control 2.60 ± 0.12) and 1.90 ± 0.10 mM in experiment [1] (0.100% in diet, day 9, control 2.62 ± 0.06).
